Laboratory results as given in patent US12319655B2, “RAF kinase inhibitors and methods of use thereof” (Deciphera Pharmaceuticals, LLC, priority 2021, dated 2025).
Like-named read-outs stand apart in the source and are kept apart here.

Key:
[1] = molecular target: B-Raf kinase (SEQ. ID NO: 2) (Homo sapiens (Human), UniProt P15056); assay: Biochemical Assay for B-Raf (1); conditions: Table J
Procedure, shortened: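 Continuous PK/LDH-coupled NADH oxidation assay, A340 read for 6 h at 30° C., with 0.13 nM B-Raf, 30.1 nM MEK substrate and 1 mM ATP in Tris pH 7.5, MgCl2, DTT, detergents, 1% DMSO. Rate taken from 4–5 h window; percent inhibition vs no-compound and known-inhibitor controls; four-parameter fit gives IC50.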

[2] = molecular target: B-Raf (V600E) (SEQ. ID NO: 4) kinase (Homo sapiens (Human), UniProt P15056, V600E); assay: Biochemical Assay for B-Raf (V600E) (1); conditions: Table J, BRAF V600E
Chain of B-Raf (V600E) (SEQ. ID NO: 4) kinase (P15056 416-766 V600E): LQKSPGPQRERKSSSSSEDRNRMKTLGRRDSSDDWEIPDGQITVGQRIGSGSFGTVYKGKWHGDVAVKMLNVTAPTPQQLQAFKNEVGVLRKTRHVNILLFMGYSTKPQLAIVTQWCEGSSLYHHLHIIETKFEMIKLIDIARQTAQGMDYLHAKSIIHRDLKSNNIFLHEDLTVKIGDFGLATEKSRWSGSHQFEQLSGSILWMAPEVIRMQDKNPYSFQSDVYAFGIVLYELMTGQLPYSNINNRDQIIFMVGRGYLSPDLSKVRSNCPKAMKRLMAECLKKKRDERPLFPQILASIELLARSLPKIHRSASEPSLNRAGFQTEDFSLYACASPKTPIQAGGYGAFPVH
Procedure, shortened: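 Coupled pyruvate kinase/lactate dehydrogenase assay: 0.03 nM B-Raf V600E, 30.1 nM MEK, 1 mM ATP, pH 7.5 Tris/MgCl2 buffer, 1% DMSO. NADH oxidation followed at 340 nm for 6 h at 30 °C; rate from 3–4 h converted to percent inhibition, IC50 by four-parameter fit.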

H2405 cells = assay: H2405 Cell Proliferation Assay (1); assay type: cell-based; conditions: Homo sapiens, NCI-H2405
Procedure, shortened: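 Viability was read by resazurin reduction (ex 540 nm, em 600 nm; 5-6 h with 40 μL of 440 μM stock) after 67-72 h compound exposure at 37 °C.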

[3] = molecular target: A-Raf kinase (SEQ. ID No: 1) (Homo sapiens (Human), UniProt P10398, Y301D/Y302D); assay: Biochemical Assay for A-Raf (1); conditions: Table J
Chain of A-Raf kinase (SEQ. ID No: 1) (P10398 other isoform, or with tags, fused parts or gaps Y301D (already in the parent)/Y302D (already in the parent)): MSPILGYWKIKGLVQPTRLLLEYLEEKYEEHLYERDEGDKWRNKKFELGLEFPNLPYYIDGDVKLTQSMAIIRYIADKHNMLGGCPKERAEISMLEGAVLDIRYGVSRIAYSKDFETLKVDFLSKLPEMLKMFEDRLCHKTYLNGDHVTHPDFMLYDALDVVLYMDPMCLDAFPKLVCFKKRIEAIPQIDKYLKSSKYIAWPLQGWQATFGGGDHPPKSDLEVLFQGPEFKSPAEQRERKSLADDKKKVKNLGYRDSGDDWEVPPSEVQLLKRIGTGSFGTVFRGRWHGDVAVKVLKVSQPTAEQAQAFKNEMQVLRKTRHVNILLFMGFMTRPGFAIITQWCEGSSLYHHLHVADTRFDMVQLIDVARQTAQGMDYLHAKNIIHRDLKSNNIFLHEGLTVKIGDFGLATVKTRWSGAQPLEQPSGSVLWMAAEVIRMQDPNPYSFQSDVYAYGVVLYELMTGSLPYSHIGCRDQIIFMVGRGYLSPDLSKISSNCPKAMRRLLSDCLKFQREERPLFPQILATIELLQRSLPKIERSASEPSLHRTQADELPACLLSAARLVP
Procedure, shortened: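 A-Raf Y301D/Y302D at 5.55 nM phosphorylates 30.1 nM MEK with 1 mM ATP in pH 7.5 Tris buffer, 1% DMSO. Activity was read continuously as NADH oxidation at 340 nm in a pyruvate kinase/lactate dehydrogenase coupled system for 6 h at 30 °C. Rates from 4–5 h were converted to percent inhibition, and IC50 came from a four-parameter fit.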

[4] = biochemical assay (1), read-out: BRAF (1)
[5] = biochemical assay (1), read-out: BRAF VE (1)
[6] = biochemical assay (1), read-out: ARAF (1)
[7] = assay version (1), read-out: BRAF (1) IC50
[8] = assay version (1), read-out: BRAF VE (1) IC50
[9] = assay version (1), read-out: ARAF (1) IC50

Chain of B-Raf kinase (SEQ. ID NO: 2) (P15056 416-766): as the sequence (P15056 416-766 V600E) above, with E185V counted along it

| Structure (SMILES) | IC50 [1, 4] | IC50 [2, 5] | IC50 (H2405 cells) | IC50 [3, 6] | IC50 [1, 7] | IC50 [2, 8] | IC50 [3, 9] |
| --- | --- | --- | --- | --- | --- | --- | --- |
| Cc1ccc(NC(=O)c2ccnc(C3CC3)c2)cc1-c1cncc(-c2cc(NC(=O)C3CC3)ncn2)c1 [Example 396] | ≤ 100 nM | ≤ 100 nM | ≤ 100 nM | 100 to 500 nM | – | – | – |
| Cc1ccc(NC(=O)c2ccnc(C(F)(F)F)c2)cc1-c1ccnc(-c2ccnc(NC=O)c2)c1 [Example 46] | – | – | – | – | ≤ 100 nM | ≤ 100 nM | 1000 to 10000 nM |
| COC(=O)Nc1cc(-c2nccc(-c3cc(NC(=O)c4ccnc(C(C)(C)F)c4)ccc3C)n2)ccn1 [Example 391] | ≤ 100 nM | ≤ 100 nM | 500 to 1000 nM | 1000 to 10000 nM | – | – | – |
| Cc1cc(-c2cc(-c3cc(NC(=O)c4ccnc(C(C)(C)C#N)c4)ccc3C)ccn2)ccn1 [Example 49] | – | – | – | – | 100 to 500 nM | ≤ 100 nM | 1000 to 10000 nM |
| Cc1ccc(NC(=O)c2ccnc(C(C)(C)C#N)c2)cc1-c1ccnc(-c2ccnc(NC(=O)CC#N)c2)c1 [Example 63] | – | – | – | – | ≤ 100 nM | ≤ 100 nM | 500 to 1000 nM |
| Cc1cc(F)c(NC(=O)c2ccnc(C(C)(C)C#N)c2)cc1-c1ccnc(-c2ccnc(NC(=O)C3CC3)c2)c1 [Example 76] | – | – | – | – | ≤ 100 nM | ≤ 100 nM | 1000 to 10000 nM |
| Cc1ccc(NC(=O)c2ccnc(C(F)(F)F)c2)cc1-c1cncc(-c2ccnc(N)c2)n1 [Example 90] | – | – | – | – | 100 to 500 nM | ≤ 100 nM | 1000 to 10000 nM |
| CNC(=O)c1cc(-c2cccc(-c3cc(NC(=O)c4ccnc(C(F)(F)F)c4)cnc3C)c2)ccn1 [Example 73] | – | – | – | – | 100 to 500 nM | ≤ 100 nM | 1000 to 10000 nM |
| CNC(=O)c1cc(-c2cncc(-c3cc(NC(=O)c4ccnc(C(F)(F)F)c4)ccc3C)n2)ccn1 [Example 47] | – | – | – | – | ≤ 100 nM | ≤ 100 nM | 1000 to 10000 nM |
| CC(=O)Nc1cc(-c2cc(-c3cc(NC(=O)c4ccnc(C(C)(C)C#N)c4)c(F)cc3C)ccn2)ccn1 [Example 75] | – | – | – | – | ≤ 100 nM | ≤ 100 nM | 1000 to 10000 nM |
| COCC(=O)Nc1cc(-c2cccc(-c3cc(NC(=O)c4ccnc(C(F)(F)F)c4)ccc3C)c2)ccn1 [Example 57] | – | – | – | – | ≤ 100 nM | ≤ 100 nM | 1000 to 10000 nM |
| Cc1cc(F)c(NC(=O)c2ccnc(C(F)(F)F)c2)cc1-c1ccnc(-c2ccnc(NC=O)c2)c1 [Example 35] | – | – | – | – | ≤ 100 nM | ≤ 100 nM | 1000 to 10000 nM |
| CNC(=O)c1cc(-c2cc(-c3cc(NC(=O)c4ccnc(C)c4)ccc3C)ncn2)ccn1 [Example 60] | – | – | – | – | 100 to 500 nM | ≤ 100 nM | 1000 to 10000 nM |
| CC(=O)Nc1cc(-c2cc(-c3cc(NC(=O)c4ccnc(C(F)(F)F)c4)ccc3C)cc(OCCO)n2)ccn1 [Example 1, N-(3-(2′-acetamido-6-(2-hydroxyethoxy)-[2,4′-bipyridin]-4-yl)-4-methylphenyl)-2-(trifluoromethyl)isonicotinamide] | – | – | – | – | ≤ 100 nM | ≤ 100 nM | 1000 to 10000 nM |
| COCC(=O)Nc1cc(-c2cc(-c3cc(NC(=O)c4ccnc(C(C)(C)C#N)c4)ccc3C)ccn2)ccn1 [Example 61] | – | – | – | – | ≤ 100 nM | ≤ 100 nM | 1000 to 10000 nM |
| CC(=O)Nc1cc(-c2cc(-c3cc(NC(=O)c4ccnc(C(C)(C)C#N)c4)ccc3C)nc(C)n2)ccn1 [Example 89] | – | – | – | – | 100 to 500 nM | ≤ 100 nM | 1000 to 10000 nM |
| CC(=O)Nc1cc(-c2cc(-c3cc(NC(=O)c4ccnc(C(F)(F)F)c4)ccc3C)nc(C)n2)ccn1 [Example 83] | – | – | – | – | ≤ 100 nM | ≤ 100 nM | 1000 to 10000 nM |
| CC(=O)Nc1cc(-c2cccc(-c3cc(NC(=O)c4ccnc(C(C)(C)C#N)c4)ccc3C)c2)ncn1 [Example 79] | – | – | – | – | ≤ 100 nM | ≤ 100 nM | 1000 to 10000 nM |

| Structure (SMILES) | IC50 [1, 4] | IC50 [2, 5] | IC50 (H2405 cells) | IC50 [3, 6] | IC50 [1, 7] | IC50 [2, 8] | IC50 [3, 9] |
| --- | --- | --- | --- | --- | --- | --- | --- |
| Cc1ccc(NC(=O)c2ccnc(C(F)(F)F)c2)cc1-c1ccnc(-c2ccnc(NC(=O)CC#N)c2)c1 [Example 39, N-(3-(2′-(2-cyanoacetamido)-[2,4′-bipyridin]-4-yl)-4-methylphenyl)-2-(trifluoromethyl)isonicotinamide] | – | – | – | – | ≤ 100 nM | ≤ 100 nM | 1000 to 10000 nM |
| CC(=O)Nc1cc(-c2cc(-c3cc(NC(=O)c4ccnc(C(F)(F)F)c4)ccc3F)cc(C)n2)ccn1 [Example 65] | – | – | – | – | ≤ 100 nM | ≤ 100 nM | 1000 to 10000 nM |
| CC(=O)Nc1cc(-c2cc(-c3cc(NC(=O)c4cccc(C)c4)ccc3C)ccn2)ccn1 [Example 32] | – | – | – | – | ≤ 100 nM | ≤ 100 nM | 500 to 1000 nM |
| CC(=O)Nc1cc(-c2cc(-c3cc(NC(=O)c4ccnc(C)c4)ccc3C)ncn2)ccn1 [Example 59] | – | – | – | – | ≤ 100 nM | ≤ 100 nM | 1000 to 10000 nM |
| COCC(=O)Nc1cc(-c2nccc(-c3cc(NC(=O)c4ccnc(C(C)(C)C#N)c4)ccc3C)n2)ccn1 [Example 88] | – | – | – | – | ≤ 100 nM | ≤ 100 nM | 1000 to 10000 nM |
| CNC(=O)c1cc(-c2cc(-c3cc(NC(=O)c4ccnc(C)c4)ccc3C)ccn2)ccn1 [Example 40] | – | – | – | – | ≤ 100 nM | ≤ 100 nM | 1000 to 10000 nM |
| CC(=O)Nc1cc(-c2cc(-c3cc(NC(=O)c4ccnc(C(F)(F)F)c4)ccc3C)ncn2)ccn1 [Example 84] | – | – | – | – | ≤ 100 nM | ≤ 100 nM | 1000 to 10000 nM |
| Cc1ncc(NC(=O)c2ccnc(C(F)(F)F)c2)cc1-c1cccc(-c2ccnc(NC(=O)C3CC3)c2)c1 [Example 70] | – | – | – | – | ≤ 100 nM | ≤ 100 nM | 500 to 1000 nM |
| CC(=O)Nc1cc(-c2cccc(-c3cc(NC(=O)c4ccnc(C(F)(F)F)c4)cnc3C)c2)ccn1 [Example 64] | – | – | – | – | ≤ 100 nM | ≤ 100 nM | 1000 to 10000 nM |
| Cc1cc(-c2cc(NC(=O)c3ccnc(C(F)(F)F)c3)ccc2F)cc(-c2ccnc(NC(=O)C3CC3)c2)n1 [Example 72] | – | – | – | – | ≤ 100 nM | ≤ 100 nM | 1000 to 10000 nM |
| Cc1ccc(NC(=O)c2ccnc(C(F)(F)F)c2)cc1-c1cccc(-c2ccnc(NC(=O)CC#N)c2)c1 [Example 62] | – | – | – | – | ≤ 100 nM | ≤ 100 nM | 100 to 500 nM |
| CC(=O)Nc1cc(-c2ccnc(-c3cc(NC(=O)c4ccnc(C(F)(F)F)c4)ccc3C)n2)ccn1 [Example 92] | – | – | – | – | ≤ 100 nM | ≤ 100 nM | 100 to 500 nM |
| CC(=O)Nc1cc(-c2cc(-c3cc(NC(=O)c4ccnc(C(F)(F)F)c4)cnc3C)ccn2)ccn1 [Example 36] | – | – | – | – | ≤ 100 nM | ≤ 100 nM | 1000 to 10000 nM |
| CC(=O)Nc1cc(-c2cc(-c3cc(NC(=O)c4ccnc(C(F)(F)F)c4)c(F)cc3C)ccn2)ccn1 [Example 2] | – | – | – | – | ≤ 100 nM | ≤ 100 nM | 500 to 1000 nM |
| CC(=O)Nc1cc(-c2cc(-c3cc(NC(=O)c4cccc(C(F)(F)F)c4)cnc3C)ccn2)ccn1 [Example 37] | – | – | – | – | ≤ 100 nM | ≤ 100 nM | 1000 to 10000 nM |
| Cc1ccc(NC(=O)c2ccnc(C(C)(C)C#N)c2)cc1-c1cncc(-c2ccnc3c2CC(=O)N3)n1 [Example 43] | – | – | – | – | ≤ 100 nM | ≤ 100 nM | 1000 to 10000 nM |
| CC(=O)Nc1cc(-c2cncc(-c3cc(C(=O)Nc4cnn(C(C)C)c4)ccc3C)n2)ccn1 [Example 87] | – | – | – | – | ≤ 100 nM | ≤ 100 nM | 1000 to 10000 nM |
| CNC(=O)c1cc(-c2nccc(-c3cc(NC(=O)c4ccnc(C(C)(C)C#N)c4)ccc3C)n2)ccn1 [Example 78] | – | – | – | – | 100 to 500 nM | ≤ 100 nM | 1000 to 10000 nM |
